Here are results for 1 molecule from patent publication US10196424B2, “Oral peptide inhibitors of interleukin-23 receptor and their use to treat inflammatory bowel diseases” (Protagonist Therapeutics, Inc., priority 2014, dated 2019).

This assay deals with DSS-induced colitis in Sprague Dawley rats. As to the kind of experiment: Rat colitis model: 9 days of 3% DSS-containing drinking water. The class given is in vivo. Particulars: 100 mg/kg PO, QD.

Each structure is given as a SMILES string.

Protocol: Rat Colitis Model: 9 Days of 3% DSS-Containing Drinking Water
In this model, colitis was induced in SD rats by 9 days of ad lib exposure to drinking water containing 3% DSS. The disease activity index (DAI) score and ratio of colon weight:colon length were compared between three study groups (n=6 rats/group): vehicle, 3% DSS, and 3% DSS with positive control (sulfasalazine administered at 100 mg/kg PO, QD).
Acute colitis was induced by feeding female Sprague Dawley rats with 3% (wt/vol) DSS dissolved in drinking water. […] A neutralizing anti-IL-23p19 antibody was used as a comparator, and was administered intraperitoneally at 4 mg/kg on the same day and fifth day after starting DSS. […] At necropsy, the entire colon was removed from the cecum to the rectum. The colon was measured for length, flushed with PBS to remove feces, weighed, and opened longitudinally to determine macroscopic score.
Statistical analysis for significance was compared to the vehicle treated group and was determined using Student's T-test (GraphPad Prism). Differences were noted as significant *p≤0.05, **p≤0.01, ***p≤0.001, ****p≤0.0001.

For `O=C(O)c1cc(/N=N/c2ccc(S(=O)(=O)Nc3ccccn3)cc2)ccc1O` [sulfasalazine], where the note is “3% DSS rats with and without treatment”, the “terminal ratio of colon weight:colon length” value is recorded as “significant”. The “disease activity index (DAI) score” value (3% DSS rats, compared to DSS alone, from Day 5) is listed as “attenuated the disease score”.
